# Data published in US5840684A, “Glycopeptide antibiotic derivatives” (Eli Lilly and Company, priority 1995, dated 1998).
# Legend:
# [1] = test system: Entercoccus faecium 276; assay: broth micro-dilution MIC; format: cell-based
# Description: (§1) The MIC's were determined using a standard broth micro-dilution assay.
# [2] = test system: Staphylococcus aureus 491; assay: broth micro-dilution MIC; format: cell-based
# Description: as §1
# [3] = test system: Staphylococcus aureus SA1199; assay: broth micro-dilution MIC; format: cell-based
# Description: as §1
# [4] = test system: Staphylococcus aureus 489; assay: broth micro-dilution MIC; format: cell-based
# Description: as §1
# [5] = test system: Staphylococcus aureus X400; assay: broth micro-dilution MIC; format: cell-based
# Description: as §1
# [6] = test system: Staphylococcus aureus X778; assay: broth micro-dilution MIC; format: cell-based
# Description: as §1
# [7] = test system: Entercoccus faecium 180-1; assay: broth micro-dilution MIC; format: cell-based
# Description: as §1
# [8] = test system: Staphylococcus aureus 447; assay: broth micro-dilution MIC; format: cell-based
# Description: as §1
# [9] = test system: Staphylococcus aureus 446; assay: broth micro-dilution MIC; format: cell-based
# Description: as §1
# [10] = test system: Entercoccus faecium 2041; assay: broth micro-dilution MIC; format: cell-based; conditions: Entercoccus faecium 2041
# Description: (§2) The formula I compounds have in vitro and in vivo activity against Gram-positive pathogenic bacteria. The MIC's were determined using a standard broth micro-dilution assay.
# [11] = test system: Haemophilus influenzae RD; assay: broth micro-dilution MIC; format: cell-based; conditions: Haemophilus influenzae RD
# Description: as §2
# [12] = test system: Staphylococcus epidermidis 270; assay: broth micro-dilution MIC; format: cell-based
# Description: as §2
# [13] = test system: Staphylococcus haemolyticus 105; assay: broth micro-dilution MIC; format: cell-based
# Description: as §2
# [14] = test system: Staphylococcus haemolyticus 415; assay: broth micro-dilution MIC; format: cell-based
# Description: as §2
# [15] = test system: Entercoccus faecium 180; assay: broth micro-dilution MIC; format: cell-based; conditions: Entercoccus faecium 180
# Description: as §2
# [16] = test system: Enterococcus gallinarum 245; assay: broth micro-dilution MIC; format: cell-based; conditions: Enterococcus gallinarum 245
# Description: as §2
# [17] = test system: vancomycin-susceptible enterococci; assay: broth micro-dilution, mean geometric MIC; format: cell-based, Enterococcus faecium and Enterococcus faecalis; conditions: enterococci, 24-hour incubation
# [18] = test system: Staphylococcus aureus SA1199B; format: cell-based
# Description: as §1
# [19] = test system: Staphylococcus aureus S13E; format: cell-based
# Description: as §1
# [20] = test system: vancomycin-resistant enterococci; assay: broth micro-dilution, mean geometric MIC; format: cell-based, Enterococcus faecium and Enterococcus faecalis; conditions: enterococci, 24-hour incubation
# [21] = test system: Streptococcus pyogenes C203; assay: broth micro-dilution MIC; format: cell-based
# Description: as §1
# [22] = test system: Streptococcus pneumoniae P1; assay: broth micro-dilution MIC; format: cell-based
# Description: as §2
# [23] = test system: Staphylococcus aureus SA1199A; assay: broth micro-dilution MIC; format: cell-based
# Description: as §1
SMILES,MIC [1] [µg/mL],MIC [2] [µg/mL],MIC [3] [µg/mL],MIC [4] [µg/mL],MIC [5] [µg/mL],MIC [6] [µg/mL],MIC [7] [µg/mL],MIC [9] [µg/mL],MIC [10] [µg/mL],MIC [11] [µg/mL],MIC [12] [µg/mL],MIC [13] [µg/mL],MIC [14] [µg/mL],MIC [15] [µg/mL],MIC [16] [µg/mL],"mean geometric MIC, Vancomycin Sensitive Strains [17] [µg/mL]",MIC [18] [µg/mL],MIC [19] [µg/mL],"mean geometric MIC, Vancomycin Resistant Strains [20] [µg/mL]",MIC [22] [µg/mL],further results
CNC(CC(C)C)C(=O)NC1C(=O)NC(CC(N)=O)C(=O)NC2C(=O)NC3C(=O)NC(C(=O)NC(C(=O)O)c4cc(O)cc(O)c4-c4cc3ccc4O)C(OC3CC(C)(N)C(O)C(C)O3)c3ccc(c(Cl)c3)Oc3cc2cc(c3OC2OC(CO)C(O)C(O)C2OC2CC(C)(NCCCCCCCCc3ccccc3)C(O)C(C)O2)Oc2ccc(cc2Cl)C1O (stereo not shown) [Compound 176],2,2,2,0.5,1,1,≤ 0.06,2,0.125,8,0.5,4,2,2,2,0.13,1,2,1.2,,MIC [8]: 1 µg/mL
CC#CCCCCCCCCCCNC1(C)CC(OC2C(Oc3c4cc5cc3Oc3ccc(cc3Cl)C(OC3CC(C)(N)C(O)C(C)O3)C3NC(=O)C(NC(=O)C5NC(=O)C(CC(N)=O)NC(=O)C(NC(=O)C(CC(C)C)NC)C(O)c5ccc(c(Cl)c5)O4)c4ccc(O)c(c4)-c4c(O)cc(O)cc4C(C(=O)O)NC3=O)OC(CO)C(O)C2O)OC(C)C1O (stereo not shown) [Compound 199],1,0.5,1,2,2,1,≤ 0.06,0.5,≤ 0.06,32,0.5,2,4,0.5,4,0.036,1,0.5,1.4,≤ 0.06,MIC [21]: ≤ 0.06 µg/mL; MIC [8]: 1 µg/mL
CNC(CC(C)C)C(=O)NC1C(=O)NC(CC(N)=O)C(=O)NC2C(=O)NC3C(=O)NC(C(=O)NC(C(=O)O)c4cc(O)cc(O)c4-c4cc3ccc4O)C(OC3CC(C)(N)C(O)C(C)O3)c3ccc(c(Cl)c3)Oc3cc2cc(c3OC2OC(CO)C(O)C(O)C2OC2CC(C)(NCCCCCCCCOc3ccc(-c4ccccc4)cc3)C(O)C(C)O2)Oc2ccc(cc2Cl)C1O (stereo not shown) [Compound 201],4,4,8,8,4,4,0.5,4,1,32,4,8,8,0.5,8,0.44,,8,1.2,≤ 0.06,MIC [23]: 2 µg/mL; MIC [21]: ≤ 0.06 µg/mL
CNC(CC(C)C)C(=O)NC1C(=O)NC(CC(N)=O)C(=O)NC2C(=O)NC3C(=O)NC(C(=O)NC(C(=O)O)c4cc(O)cc(O)c4-c4cc3ccc4O)C(OC3CC(C)(N)C(O)C(C)O3)c3ccc(c(Cl)c3)Oc3cc2cc(c3OC2OC(CO)C(O)C(O)C2OC2CC(C)(NCCCCC3CCCCC3)C(O)C(C)O2)Oc2ccc(cc2Cl)C1O (stereo not shown) [Compound 205],0.5,0.5,1,0.5,0.5,0.5,≤ 0.06,2,0.25,16,,1,1,0.5,1,0.036,0.5,0.5,1,≤ 0.06,MIC [23]: ≤ 0.06 µg/mL; MIC [21]: ≤ 0.06 µg/mL; MIC [8]: 0.5 µg/mL
CNC(CC(C)C)C(=O)NC1C(=O)NC(CC(N)=O)C(=O)NC2C(=O)NC3C(=O)NC(C(=O)NC(C(=O)O)c4cc(O)cc(O)c4-c4cc3ccc4O)C(OC3CC(C)(N)C(O)C(C)O3)c3ccc(c(Cl)c3)Oc3cc2cc(c3OC2OC(CO)C(O)C(O)C2OC2CC(C)(NCc3ccc(-c4ccccc4[N+](=O)[O-])c([N+](=O)[O-])c3)C(O)C(C)O2)Oc2ccc(cc2Cl)C1O (stereo not shown) [Compound 213],≤ 0.06,≤ 0.06,≤ 0.06,≤ 0.06,≤ 0.06,≤ 0.06,≤ 0.06,≤ 0.06,≤ 0.06,32,0.5,0.5,2,0.125,2,0.55,≤ 0.06,≤ 0.06,1.0,≤ 0.06,MIC [23]: ≤ 0.06 µg/mL
C=CCCCCCCCCNC1(C)CC(OC2C(Oc3c4cc5cc3Oc3ccc(cc3Cl)C(OC3CC(C)(N)C(O)C(C)O3)C3NC(=O)C(NC(=O)C5NC(=O)C(CC(N)=O)NC(=O)C(NC(=O)C(CC(C)C)NC)C(O)c5ccc(c(Cl)c5)O4)c4ccc(O)c(c4)-c4c(O)cc(O)cc4C(C(=O)O)NC3=O)OC(CO)C(O)C2O)OC(C)C1O (stereo not shown) [Compound 214],0.25,1,0.5,1,0.5,1,≤ 0.06,1,0.125,32,≤ 0.06,1,2,0.25,2,0.024,1,1,0.71,≤ 0.06,MIC [23]: 0.5 µg/mL; MIC [8]: 2 µg/mL
CNC(CC(C)C)C(=O)NC1C(=O)NC(CC(N)=O)C(=O)NC2C(=O)NC3C(=O)NC(C(=O)NC(C(=O)O)c4cc(O)cc(O)c4-c4cc3ccc4O)C(OC3CC(C)(N)C(O)C(C)O3)c3ccc(c(Cl)c3)Oc3cc2cc(c3OC2OC(CO)C(O)C(O)C2OC2CC(C)(NCc3ccc(-c4ccc(C#N)cc4)cc3)C(O)C(C)O2)Oc2ccc(cc2Cl)C1O (stereo not shown) [Compound 231],≤ 0.06,≤ 0.06,≤ 0.06,≤ 0.06,≤ 0.06,≤ 0.06,≤ 0.06,,≤ 0.06,32,,≤ 0.06,0.5,≤ 0.06,0.5,0.11,≤ 0.06,≤ 0.06,1.7,≤ 0.06,MIC [23]: ≤ 0.06 µg/mL; MIC [21]: ≤ 0.06 µg/mL
